“Also recorded” adds a separate entry of the source.
Assays:
CT26 colon carcinomas = experiment: CT26 colon carcinoma model, daily i.p. treatment, tumor volume; type: in vivo, BALB/c mice; settings: for effect of co-administered antagonist on the inhibition of tumor growth by clonidine / effect of co-administered antagonist on the inhibition of tumor growth by guanabenz: CT26; for effect of co-administered antagonist on the inhibition of tumor growth by clonidine: clonidine 5 mg/kg i.p. plus phentolamine 5 mg/kg, propranolol 5 mg/kg or yohimbine 10 mg/kg i.p. daily; for effect of co-administered antagonist on the inhibition of tumor growth by guanabenz: guanabenz 5 mg/kg i.p. plus phentolamine 5 mg/kg or yohimbine 10 mg/kg i.p. daily
Experimental: Mice received a daily intra-peritoneal injection of guanabenz (5 mg/kg) or vehicle (PBS) from the day of randomization (and the day of ACT when applicable) until the day of sacrifice. For the co-administration of adrenergic receptor agonist and antagonist, BALB/c mice bearing CT26 colon carcinomas received daily injections of vehicle control, guanabenz (5 mg/kg, i.p.), or guanabenz (5 mg/kg, i.p.) plus yohimbine (10 mg/kg, i.p.), when the tumor size was around 50 mm^3, until the day of sacrifice.
[…] mice were injected subcutaneously with 2×10^6 CT26 colon tumor cells at an age of 6 to 8 weeks. […] For evaluation of yohimbine on the effect of clonidine and guanabenz, the mice were randomized into different groups when tumors size arrived around 100 mm^3 and received daily injections of guanabenz (5 mg/kg, i.p.), yohimbine (10 mg/kg), a mix of guanabenz (5 mg/kg, i.p.) and yohimbine (10 mg/kg, i.p.), clonidine (5 mg/kg, i.p.), a mix of clonidine (5 mg/kg, i.p.) and yohimbine (10 mg/kg, i.p.) or vehicle control. Tumor size was measured every 2 days and mice were sacrificed when the tumor in control group reached 1,000 mm^3.

[1] = system: immune-resistant autochthonous melanoma tumors (TiRP); experiment: TiRP melanoma with adoptive cell transfer (ACT) of P1A-specific CD8+T cells; type: in vivo, TiRP mice
Description: TiRP mice have been created by crossing Ink4a/Are^flox/flox mice with mice carrying a transgenic construct controlled by the tyrosinase promoter and driving the expression of H-Ras ^12V and Trapl a which encodes a MAGE-type tumor antigen P1A; the promoter is separated from the coding region by a stop cassette made of a floxed self-deleting CreER (Huijbers et al., 2006, Cancer Res 66, 3278-3286). Those mice were backcrossed to a B10.D2 background and bred to homozygosity. TCRP1A mice heterozygous for the H-2Ld/P1A35-43-specific TCR transgene were kept on the B10.D2;Rag1^−/− background (Shanker et al., 2004, J Immunol 172, 5069-5077). BALB/c mice were used in tumor transplantation experiments. TiRP-derived T429.11 transplanted melanoma model: T429.11 clone was derived from an induced Amela TiRP tumor referred to as T429. It was cloned from the T429 induced melanoma primary tumor line. Two million of T429.11 tumor cells were injected subcutaneously into recipient mice for tumor establishment (Zhu et al., 2017, Nat Commun. 10; 8(1):1404). Adra2a tm1Bkk mice (Strain Name: B6.129-Adra2a tm1Bkk /J, # 004367) were obtained from Jackson Laboratory (Bar Harbor, Me., USA).
(§1) A fresh solution of 40H-Tamoxifen was prepared by dissolving 40H-Tamoxifen (Imaginechem®) in 100% ethanol and mineral oil (ratio 1:9) followed by 30 min sonication, and injected subcutaneously (2 mg/200 uL per mouse) in the neck area of gender-matched 7 weeks old TiRP mice. Tumor appearance was monitored daily and tumors were measured three times/week. Tumor volume (in mm^3) was calculated by the following formula: Volume=width^2×length/2.
For the adoptive cell transfer (ACT), P1A-specific (TCRP1A) CD8+T cells were isolated from spleens and lymph nodes of TCRP1A mice as described hereinabove, and stimulated in vitro by co-culture with irradiated (10,000 rads) L1210.P1A.B7-1 cells (Gajewski et al., 1995, J Immunol 154, 5637-5648) at 1:2 ratio (0.5×10^5 CD8+T cells and 10^5 L1210.P1A.B7-1 cells per well in 48-well plates) in IMDM (GIBCO®) containing 10% fetal bovine serum supplemented with L-arginine (0.55 mM, Merck®), L-asparagine (0.24 mM, Merck®), glutamine (1.5 mM, Merck®), beta-mercaptoethanol (50 μM, Sigma Aldrich®), 50 U mL^−1 penicillin and […] mL^−1 streptomycin (Life Technologies®). Four days later, TCRP1A CD8+T cells were purified on a Lymphoprep gradient (StemCell®) and 10^7 living cells were injected intravenously in 200 μL PBS in TiRP-tumor bearing mice on the day of randomization.
TiRP-tumor bearing mice received adoptive cell transfer (ACT) of 10^7 P1A-specific activated CD8+T cells and daily injections of vehicle control, clonidine (5 mg/kg, i.p.), or clonidine (5 mg/kg, i.p.) combined with phentolamine (5 mg/kg, i.p.), when the tumor size was around 500 mm^3, until the day of sacrifice. Tumor size was monitored every 2 days. Mice were sacrificed when the tumor in control group reached around 2,000 mm^3.
TiRP-tumor bearing mice received adoptive cell transfer (ACT) of 10^7 of P1A-specific activated CD8+T cells. Daily injections of 5 mg/kg i.p. of romifidine or clonidine were thus administered from the day of the ACT, when the tumor size was around 500 mm^3, until the day of sacrifice. As shown on FIGS. 5A-B, following romifidine or clonidine administration, tumor infiltration of CD8+T cells was increased. […]

CT26 colon cancer = CT26 colon cancer tumor growth (FIGS. 15-16); type: in vivo, C57BL/6J mice
Description: Tumor infiltration of CD8+cells evaluated at the day of sacrifice by FACS (FIG. 15B). Tumor growth of CT26 colon cancer in NSG mice treated with PBS (Control), clonidine, clonidine mixed with yohimbine, or yohimbine alone (FIG. 15C). FIGS. 16A-C is a set of curves and histograms showing the tumor growth of CT26 colon cancer in C57BL/6J mice treated with PBS (Control, circles), guanabenz (diamonds), guanabenz mixed with yohimbine (light grey inverted triangles), or yohimbine alone (dark grey inverted triangles) (FIG. 16A); the tumor infiltration of CD8+ cells evaluated at the day of sacrifice by FACS (FIG. 16B); and the tumor growth of CT26 colon cancer in NSG mice treated with PBS (Control), guanabenz, guanabenz mixed with yohimbine, or yohimbine alone (FIG. 16C). […] For evaluation of yohimbine on the effect of clonidine and guanabenz, the mice were randomized into different groups when tumors size arrived around 100 mm^3 and received daily injections of guanabenz (5 mg/kg, i.p.), yohimbine (10 mg/kg), a mix of guanabenz (5 mg/kg, i.p.) and yohimbine (10 mg/kg, i.p.), clonidine (5 mg/kg, i.p.), a mix of clonidine (5 mg/kg, i.p.) and yohimbine (10 mg/kg, i.p.) or vehicle control.

JAK2V617F allele burden = experiment: Myelofibrosis by JAK2V617F bone marrow transplantation, allele burden; type: in vivo, C57BL/6 mice; settings: 5 mg/kg i.p. daily; Day 7 versus Day 0
Experimental: Bone marrow from primary CD45.2 JAK2V617F mice was mixed 1:1 with CD45.1 C57BL/6 marrow and transplanted into lethally irradiated CD45.2 C57BL/6 recipients. 1 month after bone marrow transplantation, mice were randomized into three groups and received daily i.p injection of 5 mg/kg of clonidine, guanabenz or PBS. Blood was taken on Day 0 (Just before the treatment) and on Day 7 (7 days after the treatment). The allele burden was assessed as a fraction of CD45.2 cells along total CD45 cells in the blood of mice.
Decreased JAK2V617F allele burden is a golden standard method to evaluate the disease progression of MF.

[2] = system: JAK2V617F mutated bone marrow; experiment: Myelofibrosis by JAK2V617F bone marrow transplantation, platelet counts; type: in vivo, mice; settings: 5 mg/kg daily for three weeks
Experimental: Murine femurs and tibias from JAK2V617F mutant mice were first harvested and cleaned thoroughly. Marrow cells were flushed into PBS with 2% fetal bovine serum using a 25G needle and syringe. Resulting cell suspensions were then filtered through a 40 uM cell strainer. Recipient mice were irradiated with two doses of 500 rad 4 h apart. 1 million of donor cells were injected into wild-type recipients by standard intravenous injection using a 27G insulin syringe. One week after bone marrow transplantation, mice were treated with guanabenz or clonidine at a dose of 5 mg/kg daily for three weeks. After three weeks of treatment, mice were dissected and peripheral blood was drawn by cardiac puncture, the platelet concentration was measured by Cell Counter Analyzer MS9-5V.

[3] = system: human LS411N ovarian cancer; experiment: LS411N xenograft with adoptive transfer of allogeneic human PBMC; type: in vivo
Experimental: (§2) Adoptive transfer of human PBMC was performed when tumor size reaches 100 mm^3.

MC38 colon carcinomas [4] = experiment: MC38 colon carcinoma in wildtype mice; type: in vivo, C57BL/6 Wildtype mice; settings: 5 mg/kg, i.p. daily from tumor size around 50 mm^3
Experimental: (§3) C57BL/6 Wildtype or C57BL/6 Adra2a KO mice bearing MC38 colon carcinomas received daily injections of vehicle control (PBS), clonidine (5 mg/kg, i.p.) or guanabenz (5 mg/kg, i.p.), when the tumor size was around 50 mm^3, until the day of sacrifice.

MC38 colon carcinomas [5] = experiment: MC38 colon carcinoma in Adra2a KO mice; type: in vivo, C57BL/6 Adra2a KO mice; settings: 5 mg/kg, i.p. daily from tumor size around 50 mm^3
Experimental: as §3

prostate cancer = experiment: Xenograft model of prostate cancer in NSG mice treated with PBMC; type: in vivo
B16F1 melanoma [6] = experiment: B16F1 melanoma in immune competent mice; type: in vivo; settings: B16F1 in immune competent C57BL/6 mice; 5 mg/kg, i.p.; monotherapy
Experimental: (§4) FIGS. 10A-B is a set of curves showing the tumor growth of B16F1 melanoma in C57BL/6J (FIG. 10A) or immunodeficient NSG mice (FIG. 10B) treated with PBS (Control, curve 1) or clonidine (5 mg/kg, i.p., curve 2).
(§5) FIGS. 11A-B is a set of curves showing the tumor growth of B16F1 melanoma in C57BL/6J (FIG. 11A) or NSG mice (FIG. 11B) treated with PBS (Control, curve 1) or guanfacine (5 mg/kg, i.p., curve 2).

B16F1 melanoma [7] = experiment: B16F1 melanoma in immune deficient mice; type: in vivo; settings: B16F1 in immune deficient NSG mice; 5 mg/kg, i.p.
Experimental: as §4, §5

TiRP melanoma = TiRP melanoma model, monotherapy; type: in vivo; settings: TiRP+/+ mice; 5 mg/kg, i.p. daily from tumor size around 250 mm^3
Experimental: FIGS. 14A-B is a set of curves showing the tumor growth (melanoma) in TiRP+/+ mice that have received daily injections of guanfacine (5 mg/kg, i.p. triangles; FIG. 14A), clonidine (5 mg/kg, i.p., circles; FIG. 14B), or control (PBS, i.p., squares), when the tumor size was around 250 mm^3 until sacrifice.
TiRP mice have been created by crossing Ink4a/Are^flox/flox mice with mice carrying a transgenic construct controlled by the tyrosinase promoter and driving the expression of H-Ras ^12V and Trapl a which encodes a MAGE-type tumor antigen P1A; the promoter is separated from the coding region by a stop cassette made of a floxed self-deleting CreER (Huijbers et al., 2006, Cancer Res 66, 3278-3286). Those mice were backcrossed to a B10.D2 background and bred to homozygosity. TCRP1A mice heterozygous for the H-2Ld/P1A35-43-specific TCR transgene were kept on the B10.D2;Rag1^−/− background (Shanker et al., 2004, J Immunol 172, 5069-5077). […]
as §1

human LS411N cancer = experiment: LS411N xenograft with adoptive transfer of allogeneic human PBMC; type: in vivo; settings: PBMC, clonidine mixed with yohimbine
Experimental: as §2

Cc1ccc(N(CC2=NCCN2)c2cccc(O)c2)cc1 [Phentolamine]
effect of co-administered antagonist on the inhibition of tumor growth by clonidine (CT26 colon carcinomas): attenuated the inhibitory effect | effect of co-administered antagonist on the inhibition of tumor growth by guanabenz (CT26 colon carcinomas): attenuated the inhibitory effect | effect of phentolamine on the inhibition of TiRP tumor growth by clonidine ([1]; ACT, clonidine 5 mg/kg i.p. plus phentolamine 5 mg/kg i.p. daily): attenuated the inhibitory effect of clonidine on TiRP tumor growth

N=C(N)N/N=C/c1c(Cl)cccc1Cl [guanabenz]
tumor growth (tumor volume) (CT26 colon carcinomas; CT26 in BALB/c mice, 5 mg/kg, i.p. daily from tumor size around 50 mm^3 until sacrifice): promotes a decrease of the tumor volume; also recorded: strongly inhibited CT26 tumor growth | tumor growth (CT26 colon cancer; CT26 colon cancer, FIGS. 15A, 16A): inhibited CT26 colon cancer tumor growth | JAK2V617F allele burden (CD45.2 cells among total CD45 cells in blood) (JAK2V617F allele burden): decrease of JAK2V617F allele burden in a number of mice | platelet (PLT) counts [2]: significantly reduces the platelet (PLT) counts; also recorded: significantly reduced the high platelet counts | tumor growth ([3]; human allogenic PBMC transferred at tumor size 100 mm^3): significant tumor inhibition | tumor growth (MC38 colon carcinomas [4]): significant tumor inhibition | tumor inhibition in Adra2a KO mice (MC38 colon carcinomas [5]): almost completely attenuated | tumor growth (prostate cancer): strong tumor inhibition

N=C(N)NC(=O)Cc1c(Cl)cccc1Cl [guanfacine]
tumor growth, combined with ACT ([1]; TiRP mice, ACT of 10^7 P1A-specific CD8+T cells, 5 mg/kg i.p. daily): inhibited the tumor growth | tumor growth (B16F1 melanoma [6]): inhibited tumor growth | tumor growth (B16F1 melanoma [7]): No tumor inhibition was found | tumor volume, monotherapy (TiRP melanoma): efficient in decreasing the tumor volume

Fc1cccc(Br)c1NC1=NCCN1 [romifidine]
tumor infiltration of CD8+T cells (%CD8+T cells among total CD45+T cells) ([1]; TiRP mice with ACT, 5 mg/kg i.p. daily from day of ACT, tumor size around 500 mm^3, 5 mg/kg): increase of tumor infiltration of CD8+T cells; also recorded: increased

COC(=O)[C@@H]1[C@H]2C[C@H]3c4[nH]c5ccccc5c4CCN3C[C@@H]2CC[C@@H]1O [yohimbine]
effect of co-administered antagonist on the inhibition of tumor growth by clonidine (CT26 colon carcinomas): strongly attenuated; also recorded: reduced the inhibition of tumor growth | effect of co-administered antagonist on the inhibition of tumor growth by guanabenz (CT26 colon carcinomas): strongly attenuated; also recorded: reduced the inhibition of tumor growth | effect of yohimbine on the inhibition of tumor growth by clonidine (CT26 colon cancer; CT26, clonidine mixed with yohimbine): strongly attenuated | effect of yohimbine on the inhibition of tumor growth by guanabenz (CT26 colon cancer; CT26, guanabenz mixed with yohimbine): strongly attenuated | effect of yohimbine on the tumor inhibition by clonidine (human LS411N cancer): strongly attenuated | effect of yohimbine on the tumor inhibition by guanabenz ([3]; PBMC, guanabenz mixed with yohimbine): strongly attenuated
